Measurements published in publication PMC10321576, “Cyclic peptides target the aromatic cage of a PHD-finger reader domain to modulate epigenetic protein function” (Chemical Science, 2023).
Peptide text beside a SMILES is read from it.

What was measured:
Caco-2 cell = experiment: Cell permeability measurement (Caco-2); format: in vitro ADME
KDM7B Dual (PHD+JmjC) = target: T1, KDM7B Dual (PHD+JmjC) (Homo sapiens, UniProt Q9UPP1); experiment: BLI binding; design: key to BLI Screening, KDM7B Dual: (+) = binding; (-) = no binding; (NS) = non-specific
T1 construct: Dual domain = PHD+JmjC; made in house
Source text: Figure S2. BLI for KDM7 proteins with cyclic peptides.
BLI traces for b inding to KDM7 protein domains immobilised by C-terminal His -tag on Ni -NTA
biosensors, against cyclic peptides. Response trace for each peptide concentration is represented by
a different colour, with the fitted curves overlaid in black.
concentration plotted, with 2-fold dilutions thereafter. Dual domain = PHD+JmjC. […]
against KDM7 and other protein domains. t1/2 = half life (0.693 / Koff)
(1 picture or pasted object on this page, not shown here)

KDM7A dual domain = KDM7A dual domain (Homo sapiens, UniProt Q6ZMT4); experiment: MALDI-TOF-MS KDM7 activity assay (H3 peptide demethylation); format: biochemical; settings: from <5% without OC9
Protocol: Fig. 5 KDM7 PHD-finger inhibition by OC9 modulates dual domain JmjC activity. (a) (i–iii) OC9 inhibits demethylation of H3K9me2, with or without K4me3, by KDM7B (0.4 μM) on H3 peptide (2.5 μM). […] (b) (i–iii) OC9 enhances demethylation of H3K4me3K9me2 by KDM7A (0.55 μM) on H3 peptide (2.5 μM), and (iv) enhances KDM7A (0.5 μM) demethylation of calf histone extracts (50 μg). […] Inset MALDI-TOF-MS overlays are from respective highest OC9 concentration points compared to DMSO alone. KDM7 PHD-finger only proteins had no demethylase activity (Fig. S40 ^†). Calf histone H3K9me2 was quantitated relative to H4 band intensities at each time point, normalised to DMSO at t = 0. Full Western blots available in Fig. S42. ^† Relative rates (Krel min^−1) from a one-phase decay model, average from N = 3 independent experiments. […] The enzyme heading of the panel (KDM7B / KDM7A) was put in front of them. / DMSO is the vehicle control. Its printed rates (0.30 min^-1 in a, 0.04 min^-1 in b) are included because they are printed with its name.
In contrast to KDM7B, KDM7A lacks activity against H3K4me3K9me2, but demethylates H3_1–21K9me2.[57] OC9, however, restored the activity of KDM7A against H3_1–21K4me3K9me2 from <5% to a level (∼30%) that approached demethylation on H3_1–21K9me2 with DMSO alone (∼40%) (Fig. 5b and S39 ^†). […]

[1] = test system: SUP-T1 nuclear lysate proteins; experiment: Pull-down and proteomics from SUP-T1 nuclear lysate; format: binding; settings: 1 μM OC9-Bt, 454 proteins identified
Protocol: Fig. 6 Selective capture of full-length KDM7 with OC9-Bt in nuclear lysates. (a) OC9-Bt, H3K4me3-Bt and Bt were used as affinity probes in HEK293T nuclear lysates, transiently transfected with wild type KDM7B, or PHD-finger mutant (Y14A, W29A). Capture was performed with 1 μM probe incubated in pre-cleared lysate, recovered with streptavidin-conjugated magnetic beads, then washed and eluted by heating in denaturing solution. 100-fold excess OC9 or OC9 V10A were used as competitors. […] (Left) Change in all protein (454) recoveries with competition by titration of unlabelled OC9. (Right) Volcano plot comparing relative abundance of pull-down content at 0 and 20 μM competition. The upper left quadrant indicates >5-fold difference in recovered protein (based on T-test difference of mean log 2 (LFQ) values) and p-value threshold <0.05.
A further chemoproteomic profiling analysis of endogenous protein capture by OC9-Bt from KDM7B-expressing T-cell lymphoblastic lymphoma SUP-T1 nuclear lysates[67] identified 454 proteins.

KDM7B dual domain = target: T2, KDM7B dual domain (Homo sapiens, UniProt Q9UPP1); experiment: AlphaScreen demethylation assay; format: biochemical
T2 construct: dual domain (PHD-JmjC) of KDM7B; His-tag (C); made in house
Source text: We tested the effect of OC9 on KDM7B demethylation of H3_1–21K4me3K9me2 and the less-efficient H3_1–21K9me2 substrate by MALDI-TOF MS based assay.[14,19] […] Inhibition by OC9 was further confirmed by an orthogonal AS activity assay[58] (Fig. S41 ^†). […] As KDM7B aromatic cage mutation results in the same phenotypic outcome as JmjC catalytic site inactivation (e.g. KDM7B demethylase-dependent melanoma metastasis[20]), our results emphasise the crucial role of PHD-fingers in regulating KDM7 demethylase activity and the need to explore PHD-finger viability as therapeutic targets.

KDM7A PHD+JmjC = KDM7A PHD+JmjC (Homo sapiens, UniProt Q6ZMT4); experiment: AlphaScreen displacement of H3 1-21K4me3-Bt; format: binding; settings: average of two independent experiments
Source text: (§1) The functional effect of OC9 on the PHD-finger was further assessed using an AlphaScreen (AS) based proximity assay. […]

KDM7B PHD+JmjC = target: T3, KDM7B PHD+JmjC (Homo sapiens, UniProt Q9UPP1); experiment: AlphaScreen displacement of H3 1-21K4me3-Bt; format: binding; settings: average of two independent experiments
T3 construct: dual domain (PHD-JmjC) of KDM7B; made in house
Source text: as §1

KDM7B PHD = target: T4, KDM7B PHD (Homo sapiens, UniProt Q9UPP1); experiment: AlphaScreen displacement of H3 1-21K4me3-Bt; format: binding; settings: average of at least two independent experiments; read-out: AlphaScreen displacement IC50, KDM7B PHD
T4 construct: KDM7B 1-66; made in house
T4 sequence (Q9UPP1 1-66 isoform Q9UPP1-2): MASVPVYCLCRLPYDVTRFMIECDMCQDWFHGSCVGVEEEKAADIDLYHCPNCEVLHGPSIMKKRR
Source text: as §1

KDM7C PHD = target: T5, KDM7C PHD (Homo sapiens, UniProt O75151); experiment: AlphaScreen displacement of H3 1-21K4me3-Bt; format: binding; settings: average of two independent experiments
T5 construct: KDM7C 1-67; made in house
T5 sequence (O75151 1-67): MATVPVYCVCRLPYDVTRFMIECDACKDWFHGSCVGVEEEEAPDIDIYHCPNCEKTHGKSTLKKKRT
Source text: as §1

KDM7A PHD = target: T6, KDM7A PHD (Homo sapiens, UniProt Q6ZMT4); experiment: AlphaScreen displacement of H3 1-21K4me3-Bt; format: binding; settings: average of two independent experiments
T6 construct: KDM7A 38-98; made in house
T6 sequence (Q6ZMT4 38-98): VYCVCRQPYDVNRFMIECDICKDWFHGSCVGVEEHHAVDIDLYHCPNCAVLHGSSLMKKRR
Source text: as §1

T1 sequence (Q9UPP1 37-483 limits assumed): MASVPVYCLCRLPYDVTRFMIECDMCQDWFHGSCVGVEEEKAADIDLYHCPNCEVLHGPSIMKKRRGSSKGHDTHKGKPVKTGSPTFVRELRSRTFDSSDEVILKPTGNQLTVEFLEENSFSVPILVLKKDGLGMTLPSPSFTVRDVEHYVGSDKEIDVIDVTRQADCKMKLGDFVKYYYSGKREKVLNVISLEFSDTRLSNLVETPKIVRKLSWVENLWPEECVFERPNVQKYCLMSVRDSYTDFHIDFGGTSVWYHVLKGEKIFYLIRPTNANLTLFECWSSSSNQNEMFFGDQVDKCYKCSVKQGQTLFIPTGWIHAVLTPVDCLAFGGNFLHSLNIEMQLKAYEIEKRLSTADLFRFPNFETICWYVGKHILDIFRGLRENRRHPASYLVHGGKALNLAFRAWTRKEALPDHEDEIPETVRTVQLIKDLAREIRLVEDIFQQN
Sequence of KDM7A dual domain (Q6ZMT4 38-480 limits assumed): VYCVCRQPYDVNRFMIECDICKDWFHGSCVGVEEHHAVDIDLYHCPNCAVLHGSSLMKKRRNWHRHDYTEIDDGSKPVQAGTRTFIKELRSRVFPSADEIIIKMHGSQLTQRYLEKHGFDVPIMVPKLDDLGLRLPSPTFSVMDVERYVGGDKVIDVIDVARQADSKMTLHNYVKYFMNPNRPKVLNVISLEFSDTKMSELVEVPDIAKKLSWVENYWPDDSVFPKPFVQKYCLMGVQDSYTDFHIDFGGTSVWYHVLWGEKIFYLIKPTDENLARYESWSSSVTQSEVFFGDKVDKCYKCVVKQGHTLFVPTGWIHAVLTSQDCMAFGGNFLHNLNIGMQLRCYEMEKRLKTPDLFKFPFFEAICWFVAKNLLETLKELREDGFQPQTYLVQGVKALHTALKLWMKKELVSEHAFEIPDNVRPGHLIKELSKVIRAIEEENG
Sequence of KDM7A PHD+JmjC (Q6ZMT4 38-386 limits assumed): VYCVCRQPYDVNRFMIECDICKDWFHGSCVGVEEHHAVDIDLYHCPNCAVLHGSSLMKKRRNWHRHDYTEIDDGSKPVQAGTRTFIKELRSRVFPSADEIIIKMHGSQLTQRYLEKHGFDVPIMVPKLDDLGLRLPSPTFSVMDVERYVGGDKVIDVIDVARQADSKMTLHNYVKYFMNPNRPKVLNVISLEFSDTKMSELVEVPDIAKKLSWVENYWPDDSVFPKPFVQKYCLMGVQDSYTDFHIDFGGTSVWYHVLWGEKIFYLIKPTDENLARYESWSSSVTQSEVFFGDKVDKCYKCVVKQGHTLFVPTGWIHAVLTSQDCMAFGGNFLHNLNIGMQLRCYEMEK
T3 sequence (Q9UPP1 37-483 limits assumed): as the sequence (Q9UPP1 37-483 limits assumed) above
T2 sequence (Q9UPP1 37-483 limits assumed): as above

## CC(C)C[C@@H]1NC(=O)[C@H](Cc2ccc(O)cc2)NC(=O)[C@H](Cc2ccc(O)cc2)NC(=O)CSC[C@@H](C(N)=O)NC(=O)[C@H]([C@@H](C)O)NC(=O)[C@H](CCCNC(=N)N)NC(=O)[C@H](Cc2ccccc2)NC(=O)[C@H](C(C)C)NC(=O)[C@H](CO)NC(=O)[C@@H]2CCCN2C(=O)[C@H](Cc2ccc(O)cc2)NC(=O)[C@@H]2CCCN2C(=O)[C@H](Cc2c[nH]cn2)NC(=O)[C@H]([C@@H](C)O)NC1=O [OC9] (HELM PEPTIDE1{[O=C(C[*:3])[*:2]].Y.Y.L.T.H.P.Y.P.S.V.F.R.T.C.[am]}$PEPTIDE1,PEPTIDE1,1:R3-15:R3$$$V2.0)
Caco-2 cell
  permeability in Caco-2 cell assay: negligible permeability
KDM7B Dual (PHD+JmjC); 1:1 binding model
  koff: 0.00413 ± 3e-05 s⁻¹
  kon: 691000 ± 7000 M⁻¹ s⁻¹
KDM7B Dual (PHD+JmjC); His-tagged protein on Ni-NTA biosensors, 1:1 binding model
  Kd: 5.98 nM
KDM7B Dual (PHD+JmjC); qualitative assessment of binding by BLI
  BLI Screening, KDM7B Dual: +
KDM7A dual domain
  activity of KDM7A against H3_1–21K4me3K9me2 restored by OC9 (demethylation level): ~30%
[1]
  proteins competed from OC9-Bt pull-down by titration of unlabelled OC9: Only the relative abundance of KDM7B and KDM7C were significantly affected
KDM7B dual domain
  inhibition of KDM7B demethylase in orthogonal AS activity assay: Inhibition
KDM7A PHD+JmjC
  IC50: 132 nM
KDM7B PHD+JmjC
  IC50: 95 nM
KDM7B PHD
  IC50: 32 nM
KDM7C PHD
  IC50: 26 nM
KDM7A PHD
  IC50: 62 nM
